Source: patent publication US12329764B2, “Composition for promoting normal urinary function” (Vidya Herbs, Inc., priority 2018, dated 2025)

Legend:
BPH model rats = assay: Prostate growth in testosterone induced BPH rats; type: in vivo, Wistar rats
Protocol: Forty-two male Wistar rats (10 week old) were purchased from Biogen, Bangalore, India (CPCSEA Reg. No. 971/bc/06). The animals were housed in accordance with the CPCSEA (Committee for the Purpose of Control and Supervision of Experiments on Animals) guidelines. After a one-week acclimatization period the animals were housed in rooms maintained at 22±2° C. and 30-70% humidity. Water and standard pellet diet were given ad libitum. The animals were randomly divided into seven groups, each group consisting of six animals with less than 20% mean body weight range.
(§1) BPH was induced in rats using testosterone 5 mg/kg subcutaneously and a simultaneous treatment with different doses of saw palmetto preparations viz. Saw palmetto oil (SPO) and the inventive composition (200 and 400 mg/kg b.w.) or Finasteride (1 mg/kg b.w.) p.o., was followed for 21 days (Table 1). The inventive composition (VISPO) was a composition of saw palmetto oil having 3% β-sitosterol. At the end of the treatment period, blood was collected prior to the necropsy. Animals were sacrificed by overdose of anesthetics. The vital parameters such as prostate weight, prostate weight to body weight ratio, growth inhibition of prostate, serum testosterone level, expression of inflammatory and apoptotic proteins in prostate tissue were evaluated.
Following a 21-day treatment with the saw palmetto oil preparations and/or Finasteride, prostate tissues were excised, rinsed and weighed immediately after removal. The PW/BW ratio was calculated using the following equation: PW/BW ratio=(Prostate weight of each animal from experimental group/Body weight of each animal from experimental group)×1000. The percentage of growth inhibition was calculated as follows: 100−[(treated group−control group)/(BPH group−control group)]×100.

[1] = tested on: hyperplastic patterns in prostate tissue of BPH rats; assay: Histology (H&E) of prostate tissue of BPH rats; type: in vivo, Wistar rats; conditions: finasteride group 1 mg/kg
Protocol: as §1
The prostate tissue samples were fixed in 4% formalin, dehydrated with a graded alcohol series, embedded in paraffin, and then cut into 4 μm thickness. The sections were stained with hematoxylin and eosin (H&E, Sigma-Aldrich, St. Louis, MO, USA). The images were captured using a microscope (Leica, Germany).

Structure (SMILES): CC(C)(C)NC(=O)[C@H]1CC[C@H]2[C@@H]3CC[C@H]4NC(=O)C=C[C@]4(C)[C@H]3CC[C@]12C [Finasteride]
- Prostate weight (BPH model rats; 1 mg/kg p.o., 21 days, testosterone 5 mg/kg s.c., mean ± SEM (n = 6)): 0.27 ± 0.01 g
- Inhibition of growth (BPH model rats; 1 mg/kg p.o., 21 days, prostate growth vs BPH and control groups): 93.18%
- Reduction in prostate weight (BPH model rats; Finasteride treatment 1 mg/kg, vs BPH group): 2.51 fold
- Prostate weights, in words (BPH model rats; vs BPH group, p<0.001): reduced considerably
- Histological examination of prostate tissue [1]: near normal prostatic glands with mild focal inflammation
